The test system of experiment [1] is HCV replicon in HUH-7 cells. The experiment in a line: HCV replicon assay (FRET, confirmed in the luciferase reporter assay). In kind it is cell-based. Conditions: Hepatitis C virus, 96 h, 4 days. The source says:
An HCV replicon whole cell system was established as described by Lohmann V, Korner F, Koch J, Herian U, Theilmann L, Bartenschlager R., Science 285(5424):110-3 (1999). This system enabled us to evaluate the effects of our HCV Protease compounds on HCV RNA replication. Briefly, using the HCV strain 1b sequence described in the Lohmann paper (Assession number: AJ238799), an HCV cDNA was synthesized by Operon Technologies, Inc. (Alameda, Calif.), and the full-length replicon was then assembled in plasmid pGem9zf(+) (Promega, Madison, Wis.) using standard molecular biology techniques. The replicon consists of (i) the HCV 5′ UTR fused to the first 12 amino acids of the capsid protein, (ii) the neomycin phosphotransferase gene (neo), (iii) the IRES from encephalomyocarditis virus (EMCV), and (iv) HCV NS3. to NS5B genes and the HCV 3′ UTR. Plasmid DNAs were linearized with Seal and RNA transcripts were synthesized in vitro using the T7 MegaScript transcription kit (Ambion, Austin, Tex.) according to manufacturer's directions. In vitro transcripts of the cDNA were transfected into the human hepatoma cell line, HUH-7. […] Resulting cell lines were characterized for positive and negative strand RNA production and protein production over time.
The HCV replicon FRET assay was developed to monitor the inhibitory effects of compounds described in the disclosure on HCV viral replication. HUH-7 cells, constitutively expressing the HCV replicon, were grown in Dulbecco's Modified Eagle Media (DMEM) (Gibco-BRL) containing 10% Fetal calf serum (FCS) (Sigma) and 1 mg/ml G418 (Gibco-BRL). Cells were seeded the night before (1.5×10^4 cells/well) in 96-well tissue-culture sterile plates. Compound and no compound controls were prepared in DMEM containing 4% FCS, 1:100 Penicillin/Streptomysin (Gibco-BRL), 1:100 L-glutamine and 5% DMSO in the dilution plate (0.5% DMSO final concentration in the assay). Compound/DMSO mixes were added to the cells and incubated for 4 days at 37° C. After 4 days, cells were first assessed for cytotoxicity using alamar Blue (Trek Diagnotstic Systems) for a CC50 reading. The toxicity of compound (CC50) was determined by adding 1/10th volume of alamar Blue to the media incubating the cells. After 4 h, the fluorescence signal from each well was read, with an excitation wavelength at 530 nm and an emission wavelength of 580 nm, using the Cytofluor Series 4000 (Perspective Biosystems). Plates were then rinsed thoroughly with Phosphate-Buffered Saline (PBS) (3 times 150 μl).
As a secondary assay, EC50 determinations from the replicon FRET assay were confirmed in a replicon luciferase reporter assay. Utilization of a replicon luciferase reporter assay was first described by Krieger et al (Krieger N, Lohmann V, and Bartenschlager R, J. Virol. 75(10):4614-4624 (2001)). The replicon construct described for our FRET assay was modified by inserting cDNA encoding a humanized form of the Renilla luciferase gene and a linker sequence fused directly to the 3′-end of the luciferase gene. This insert was introduced into the replicon construct using an Ascl restriction site located in core, directly upstream of the neomycin marker gene. The adaptive mutation at position 1179 (serine to isoleucine) was also introduced (Blight K J, Kolykhalov, A A, Rice, C M, Science 290(5498):1972-1974). A stable cell line constitutively expressing this HCV replicon construct was generated as described above. The luciferase reporter assay was set up as described for the HCV replicon FRET assay with the following modifications. Following 4 days in a 37° C./5% CO2 incubator, cells were analyzed for Renilla Luciferase activity using the Promega Dual-Glo Luciferase Assay System. Media (100 μl) was removed from each well containing cells. To the remaining 50 μl of media, 50 μl of Dual-Glo Luciferase Reagent was added, and plates rocked for 10 min to 2 h at room temperature. […]
Background: A replicon is a self-replicating genome or part of one, used to study replication in cells.

In experiment [2] the target is T1, HCV NS3/4A protease complex (Hepatitis C virus genotype 1a, UniProt P27958, C1454S/C1711G).
T1 construct: recombinant HCV NS3/4A protease complex (amino acids 1027 to 1711); inferred from the pET21b vector and Ni-NTA purification; made in house; host or cells: Escherichia coli BL21 (DE3)
T1 sequence (P27958 1027-1711 C1454S/C1711G, one chain of several): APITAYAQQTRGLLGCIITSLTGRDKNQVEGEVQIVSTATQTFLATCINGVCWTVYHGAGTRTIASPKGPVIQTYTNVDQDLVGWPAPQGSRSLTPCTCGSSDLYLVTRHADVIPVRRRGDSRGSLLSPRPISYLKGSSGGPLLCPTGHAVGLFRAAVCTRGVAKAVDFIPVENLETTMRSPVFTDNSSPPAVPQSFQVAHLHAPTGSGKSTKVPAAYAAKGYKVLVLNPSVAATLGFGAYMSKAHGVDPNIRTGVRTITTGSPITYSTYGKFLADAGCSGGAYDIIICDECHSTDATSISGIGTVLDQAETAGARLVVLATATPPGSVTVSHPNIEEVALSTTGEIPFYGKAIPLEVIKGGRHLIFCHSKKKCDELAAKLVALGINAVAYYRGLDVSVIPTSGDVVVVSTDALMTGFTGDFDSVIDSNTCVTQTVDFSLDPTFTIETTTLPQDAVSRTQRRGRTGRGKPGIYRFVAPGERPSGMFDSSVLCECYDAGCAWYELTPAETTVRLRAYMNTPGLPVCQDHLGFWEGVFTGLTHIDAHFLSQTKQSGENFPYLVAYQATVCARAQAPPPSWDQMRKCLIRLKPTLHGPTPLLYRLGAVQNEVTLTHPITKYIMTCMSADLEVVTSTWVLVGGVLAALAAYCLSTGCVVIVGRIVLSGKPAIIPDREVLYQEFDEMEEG
The experiment in a line: FRET peptide assay to monitor HCV NS3/4A proteolytic activity. In kind it is biochemical. Conditions: HCV NS3/4A protease complex, strain not stated, read-out: IC50. The source says: HCV NS3 protease complexes, derived from the BMS strain, H77 strain or J4L6S strain, were generated, as described below. These purified recombinant proteins were generated for use in a homogeneous assay (see below) to provide an indication of how effective compounds of the present disclosure would be in inhibiting HCV NS3 proteolytic activity.
The H77 and J4L6S strains were used for production of recombinant NS3/4A protease complexes. DNA encoding the recombinant HCV NS3/4A protease complex (amino acids 1027 to 1711) for these strains was manipulated as described by P. Gallinari et al. (see Gallinari P, Paolini C, Brennan D, Nardi C, Steinkuhler C, De Francesco R. Biochemistry. 38(17):5620-32, (1999)). Briefly, a three-lysine solubilizing tail was added at the 3′-end of the NS4A coding region. The cysteine in the P1 position of the NS4A-NS4B cleavage site (amino acid 1711) was changed to a glycine to avoid the proteolytic cleavage of the lysine tag. Furthermore, a cysteine to serine mutation was introduced by PCR at amino acid position 1454 to prevent the autolytic cleavage in the NS3 helicase domain. The variant DNA fragment was cloned in the pET21b bacterial expression vector (Novagen) and the NS3/4A complex was expressed in Escherichia coli strain BL21 (DE3) (Invitrogen) following the protocol described by P. Gallinari et al. (see Gallinari P, Brennan D, Nardi C, Brunetti M, Tomei L, Steinkuhler C, De Francesco R., J Virol. 72(8):6758-69 (1998)) with modifications. Briefly, the NS3/4A protease complex expression was induced with 0.5 millimolar (mM) Isopropyl β-D-1-thiogalactopyranoside (IPTG) for 22 hours (h) at 20° C. A typical fermentation (1 Liter (L)) yielded approximately 10 grams (g) of wet cell paste. The cells were resuspended in lysis buffer (10 mL/g) consisting of 25 mM N-(2-Hydroxyethyl)Piperazine-N′-(2-Ethane Sulfonic acid) (HEPES), pH 7.5, 20% glycerol, 500 mM Sodium Chloride (NaCl), 0.5% Triton X-100, 1 microgram/milliliter (“μg/mL”) lysozyme, 5 mM Magnesium Chloride (MgCl2), 1 μg/ml DnaseI, 5 mM β-Mercaptoethanol (βME), Protease inhibitor-Ethylenediamine Tetraacetic acid (EDTA) free (Roche), homogenized and incubated for 20 minutes (min) at 4° C. The homogenate was sonicated and clarified by ultra-centrifugation at 235000 g for 1 hour (h) at 4° C. Imidazole was added to the supernatant to a final concentration of 15 mM and the pH adjusted to 8.0. The crude protein extract was loaded on a Nickel-Nitrilotriacetic acid (Ni-NTA) column pre-equilibrated with buffer B (25 mM HEPES, pH 8.0, 20% glycerol, 500 mM NaCl, 0.5% Triton X-100, 15 mM imidazole, 5 mM βME). The sample was loaded at a flow rate of 1 ml/min. The column was washed with 15 column volumes of buffer C (same as buffer B except with 0.2% Triton X-100). The protein was eluted with 5 column volumes of buffer D (same as buffer C except with 200 mM Imidazole).
NS3/4A protease complex-containing fractions were pooled and loaded on a desalting column Superdex-S200 pre-equilibrated with buffer D (25mM HEPES, pH 7.5, 20% glycerol, 300 mM NaCl, 0.2% Triton X-100, 10 mM βME). Sample was loaded at a flow rate of 1 mL/min. NS3/4A protease complex-containing fractions were pooled and concentrated to approximately 0.5 mg/ml. The purity of the NS3/4A protease complexes, derived from the BMS, H77 and J4L6S strains, were judged to be greater than 90% by SDS-PAGE and mass spectrometry analyses. The enzyme was stored at −80° C., thawed on ice and diluted prior to use in assay buffer.
The purpose of this in vitro assay was to measure the inhibition of HCV NS3 protease complexes, derived from the BMS strain, H77 strain or J4L6S strain, as described above, by compounds of the present disclosure. This assay provides an indication of how effective compounds of the present disclosure would be in inhibiting HCV NS3 proteolytic activity.
In order to monitor HCV NS3/4A protease activity, an NS3/4A peptide substrate was used. […]

Consider 15 compounds from patent publication US20100080770A1, “Hepatitis C Virus Inhibitors” (priority 2008, published 2010).

The structures appear in SMILES notation. Like-named read-outs stand apart in the source and are kept apart here.

As a reminder, the EC50 is the concentration needed to bring the measured effect to its halfway point. The IC50 is the concentration that inhibits the measured activity by half. For `C=C[C@@H]1C[C@]1(NC(=O)[C@@H]1C[C@]2(OC)CN1C(=O)[C@H](C(C)(C)C)NC(=O)OCC/C=C\c1cc3cc2ccc3cc1OC)C(=O)NS(=O)(=O)C1CC1` [Example 1], in experiment [1] (numeric values), the midpoint of the response, the EC50, lay at 0.12 µM. For the same compound, the IC50 in experiment [2] (numeric values) is 0.031 µM.
Consider `CC[C@@H]1C[C@]1(NC(=O)[C@@H]1C[C@]2(OC)CN1C(=O)[C@H](C(C)(C)C)NC(=O)OCC(C)(C)CCCCc1cc3cc2ccc3cc1OC)C(=O)NS(=O)(=O)C1CC1` [Example 16], for which the concentration giving a half-maximal response (EC50) in experiment [1] (class symbols) was 0.021 to 0.15 µM. Moreover, the half-maximal inhibitory concentration (IC50) in experiment [2] (class symbols) was 0.011 to 0.012 µM.
On the same counts, the results for `C=C[C@@H]1C[C@]1(NC(=O)[C@@H]1C[C@]2(OC)CN1C(=O)[C@H](C(C)(C)C)NC(=O)OCC(C)(C)CCCCc1cc3cc2ccc3cc1OC)C(=O)NS(=O)(=O)C1CC1` [Example 14] are 0.001 to 0.01 µM and 0.001 to 0.01 µM.
The compound `C=C[C@@H]1C[C@]1(NC(=O)[C@@H]1C[C@]2(OC)CN1C(=O)[C@H](C(C)(C)C)NC(=O)OCCCCCCc1cc3cc2ccc3cc1OC)C(=O)NS(=O)(=O)C1CC1` [Example 12] gave an EC50 in experiment [1] (numeric values) of 0.00284 µM. The IC50 in experiment [2] (numeric values) amounted to 0.001 µM.
`COc1cc2ccc3cc2cc1CCCC(C)(C)CCOC(=O)N[C@@H](C(C)(C)C)C(=O)N1C[C@@]3(OC)C[C@H]1C(=O)N[C@]1(C(=O)NS(=O)(=O)C2CC2)C[C@H]1C(F)F` [Example 18] yielded an EC50 in experiment [1] (class symbols) of 0.001 to 0.01 µM. In addition, in experiment [2] (class symbols), the 50% inhibitory concentration (IC50) was 0.001 to 0.01 µM.
On to `COc1cc2ccc3cc2cc1CCCC(C)(C)CCOC(=O)N[C@@H](C(C)(C)C)C(=O)N1C[C@@]3(OC)C[C@H]1C(=O)N[C@]1(C(=O)NS(=O)(=O)C2CC2)C[C@H]1C1CC1` [Example 19], for which, in experiment [1] (class symbols), the EC50 was 0.001 to 0.01 µM. The IC50 in experiment [2] (class symbols) is 0.001 to 0.01 µM.
For the compound `COc1cc2ccc3cc2cc1CCCCC(C)(C)COC(=O)N[C@@H](C(C)(C)C)C(=O)N1C[C@@]3(OC)C[C@H]1C(=O)N[C@]1(C(=O)NS(=O)(=O)C2CC2)C[C@H]1C1CC1` [Example 15], the EC50 in experiment [1] (class symbols) was in the range of 0.001 to 0.01 µM. In addition, in experiment [2] (class symbols), the IC50 is 0.001 to 0.01 µM.
`COc1cc2ccc3cc2cc1CCCC(C)(C)COC(=O)N[C@@H](C(C)(C)C)C(=O)N1C[C@@]3(OC)C[C@H]1C(=O)N[C@]1(C(=O)NS(=O)(=O)C2CC2)C[C@H]1C(F)F` [Example 11]: the EC50 in experiment [1] (class symbols) fell in the range of 0.011 to 0.02 µM. The concentration for half-maximal inhibition (IC50) in experiment [2] (class symbols) lay within 0.001 to 0.01 µM.
The matching figures for `C=C[C@@H]1C[C@]1(NC(=O)[C@@H]1C[C@]2(OC)CN1C(=O)[C@H](C(C)(C)C)NC(=O)OCC(C)(C)CCCc1cc3cc2ccc3cc1OC)C(=O)NS(=O)(=O)C1CC1` [Example 9]: 0.001 to 0.01 µM and 0.001 to 0.01 µM.
On the same counts, the results for `C=C[C@@H]1C[C@]1(NC(=O)[C@@H]1C[C@]2(OC)CN1C(=O)[C@H](C(C)(C)C)NC(=O)OCCCCC=Cc1cc3cc2ccc3cc1OC)C(=O)NS(=O)(=O)C1CC1` [Example 7] are 0.001 to 0.01 µM and 0.001 to 0.01 µM.
On the same counts, the results for `C=C[C@@H]1C[C@]1(NC(=O)[C@@H]1C[C@]2(OC)CN1C(=O)[C@H](C(C)(C)C)NC(=O)OCCC(C)(C)CCCc1cc3cc2ccc3cc1OC)C(=O)NS(=O)(=O)C1CC1` [Example 17] are 0.001 to 0.01 µM and 0.001 to 0.01 µM.
`C=C[C@@H]1C[C@]1(NC(=O)[C@@H]1C[C@]2(OC)CN1C(=O)[C@H](C(C)(C)C)NC(=O)OCCC/C=C\c1cc3cc2ccc3cc1OC)C(=O)NS(=O)(=O)C1CC1` [Example 4] gave a concentration giving a half-maximal response (EC50) in experiment [1] (class symbols) of 0.001 to 0.01 µM. In experiment [2] (class symbols), the half-maximal inhibitory concentration (IC50) is 0.001 to 0.01 µM.
The compound `COc1cc2ccc3cc2cc1CCCC(C)(C)COC(=O)N[C@@H](C(C)(C)C)C(=O)N1C[C@@]3(OC)C[C@H]1C(=O)N[C@]1(C(=O)NS(=O)(=O)C2CC2)C[C@H]1C1CC1` [Example 10] yielded a concentration for a half-maximal effect (EC50) in experiment [1] (class symbols) of 0.021 to 0.15 µM. Besides, the IC50 in experiment [2] (class symbols) was 0.011 to 0.012 µM.
The matching figures for `C=C[C@@H]1C[C@]1(NC(=O)[C@@H]1C[C@]2(OC)CN1C(=O)[C@H](C(C)(C)C)NC(=O)OCC(C)(C)C/C=C\c1cc3cc2ccc3cc1OC)C(=O)NS(=O)(=O)C1CC1` [Example 8]: 0.001 to 0.01 µM and 0.001 to 0.01 µM.
In turn, `COc1cc2ccc3cc2cc1CCCCCCOC(=O)N[C@@H](C(C)(C)C)C(=O)N1C[C@@]3(OC)C[C@H]1C(=O)N[C@]1(C(=O)NS(=O)(=O)C2CC2)C[C@H]1C1CC1` [Example 13] yielded an EC50 in experiment [1] (class symbols) of 0.011 to 0.02 µM. Further, the IC50 in experiment [2] (class symbols) lay in the range of 0.001 to 0.01 µM.
